Results as given in patent US4751302A, “Indazole derivatives” (priority 1982, dated 1988).
Where “and” joins values, the source holds several entries; their conditions need not be identical. Equal entries are not always repeated. Entries after “also recorded” stand apart in the source; their conditions may differ. Where two headings read alike, the source gives them in different places.

Columns and labels:
[1] = tested on: carrageenin edema on hind paw; assay: Carrageenin edema inhibition, comparison with 3-amino-5-chloroindazole; type: in vivo, female Wister rats; settings: oral; for inhibition to the (carrageenin) edema: after 3 hours from the injection of 1% carrageenin
Method: (§1) To female Wister rats weighing 130-150 g nothing was fed for 19 hours. Then, the rats were orally administered the test compound. Sixty minutes later, the pad of a hind paw of the rat was injected with 0.1 ml of 1% carrageenin solution. After edema was formed on the paw, paw volume and body temperature of the rat were measured, and movement of the rat was observed. As a result, both 3-amino-5-chloroindazole and Compound (46) show a strong inhibition to the edema, that is, 65% and 59%, respectively,after 3 hours from the injection.

[2] = Body temperature / side effects in carrageenin-treated rats; type: in vivo, female Wister rats
Method: as §1

[3] = Locomotor activity observation in carrageenin-treated rats; type: in vivo, female Wister rats; settings: oral, carrageenin-injected rats
Method: as §1

[4] = Superoxide capture by ESR and UV spectra (potassium superoxide / dicyclohexyl-18-crown-6 in acetonitrile); type: biochemical; settings: for catch of superoxide / one electron acceptance: ESR and UV
Method: As described in Yoshihiko Oyagi, "Superoxide and Medical Science", pp. 120-144, published by Kyoritsu Shuppan, a superoxide is considered to be one of the factors which cause the inflammation.
According to the description on Transactions of the Faraday Society, 59, 2016-2026 (1963), the UV spectrum of a phenoxy radical is observed at 380-430 nm. When the UV spectrum of a mixture of the 3-amino-5-hydroxyindazole and dicyclohexyl-18-crown-6 is measured in acetonitrile, λmax is observed at 306 nm. If potassium superoxide is added to the mixture, λmax is observed at 403 nm and 426 nm. On the other hand, no absorptions are observed at 350-450 nm when the UV spectra of potassium superoxide and 3-amino-5-hydroxyindazole are measured respectively in the presence of both dicyclohexyl-18-crown-6 and acetonitrile.

[5] = tested on: Carrageenin edema in rat's paw; assay: Carrageenin Edema Test in Rat's Paw (anti-inflammatory activity, Table 1); type: in vivo; settings: 100 mg/kg oral, hydrochloride, rat
Method: An anti-inflammatory activity was measured by orally administering 100 mg/kg of a hydrochloride of the indazole derivative of this invention as set forth in Table 1 to an animal in accordance with the standard method of Carrageenin Edema Test in Rat's Paw described in C. A. Winter et al., Proc. Soc. Exp. Biol. Med., 111, 544 (1962).

[6] = tested on: Bradykinin inducing edema; assay: Anti-edema test, bradykinin inducing edema (Table 2); type: in vivo, rat; settings: after 30 minutes
Method: (§2) […] A. Winter et al., NonSteroidal Anti-inflammatory Drugs. As an edema inducing substance, bradykinin, histamine and serotonin were employed. […] Bradykinin inducing edema inhibition and histamine inducing edema inhibition were measured after 30 minutes of the administration, and serotonin inducing edema inhibition was measured after 3 hours of the administration.

Histamine inducing edema = assay: Anti-edema test, histamine inducing edema (Table 2); type: in vivo, rat; settings: after 30 minutes
Method: as §2

Serotonin inducing edema = assay: Anti-edema test, serotonin inducing edema (Table 2); type: in vivo, rat; settings: after 3 hours
Method: as §2

acetic acid-writing = assay: Analgesic activity, acetic acid-writing test (Table 3); type: in vivo, animal (rat); standard mouse acetic acid-writing test
in vivo = settings: mouse, ip, intraperitoneal, hydrochloride, male ddy mice
gastric ulcer = type: in vivo, Male donryu rats
Method: The test compound was suspended in 1% HCO-60 (trade name for polyoxyethylene hydrogenated castor oil; a product of Nikko Chemical Co., Ltd., Japan) at the concentration of 10 mg/ml. Male donryu rats weighing 150-160 g were orally administered 100 mg/kg of the test compound. The occurrence of gastric ulcer was examined 24 hours after the administration.
It is well known that the single use of acidic non-steroidal anti-inflammatory drugs causes a side effect in digestive tract ulcers such as gastric ulcer. The inventors found, however, that the side effect could be suppressed if the acidic non-steroidal anti-inflammatory drugs were used in combination with the indazole derivatives or pharmaceutically acceptable salts thereof of this invention. For example, gastric ulcer was caused by a single administration of 10 mg/kg of indomethacin in an ulcer index of 10.2 mm, and in an occurrence frequency of 6/6 (Ulcer generation animal number/Total animal number).

[7] = potassium superoxide, dicyclohexyl-18-crown-6, acetonitrile
[8] = 100 mg/kg Compound (126) together with 10 mg/kg indomethacin

Nc1n[nH]c2ccc(Cl)cc12 [3-amino-5-chloroindazole, reference compound]
inhibition to the (carrageenin) edema [1]: 65% | decrease of body temperature ([2]; oral, carrageenin-injected rats): 3-4 °C | depression of locomotor activity [3]: remarkable depression of locomotor activity

Nc1n[nH]c2ccc(O)cc12 [3-amino-5-hydroxyindazole, 3-Amino-5-hydroxyindazole]
ESR signals on addition to superoxide mixture (phenoxy radical) [4, 7]: six superfine signals are observed | catch of superoxide / one electron acceptance [4, 7]: a phenoxy radical is produced | UV λmax after adding potassium superoxide (phenoxy radical) ([4]; with potassium superoxide and dicyclohexyl-18-crown-6 in acetonitrile): 403 nm and 426 nm

CCN(CC)CCCNc1n[nH]c2ccc(Cl)cc12 [(46), 3-(3-Diethylaminopropylamino)-5-chloroindazole]
inhibition in vivo at 100 mg/kg [5]: 59% | Bradykinin inducing edema Inhibition ([6]; 100 mg/kg oral): 14.7% | Histamine inducing edema Inhibition (Histamine inducing edema; 100 mg/kg oral): 31.0% | Serotonin inducing edema Inhibition (Serotonin inducing edema; 100 mg/kg oral): 73.4% | Carrageenin edema inhibition activity relative to 3-amino-5-chloroindazole [1]: the same Carrageenin edema inhibition activity as 3-amino-5-chloroindazole | inhibition to the (carrageenin) edema [1]: 59% | side effects (decrease of body temperature, depression of locomotor activity), words ([2]; relative to 3-amino-5-chloroindazole): can relieve the side effects of 3-amino-5-chloroindazole | Inhibition (acetic acid-writing, analgesic activity) (acetic acid-writing; 100 mg/kg oral): 52% | LD50 (in vivo): 211 mg/kg

CCN(CC)CCCn1nc(NCCCN2CCCCC2)c2cc(O)ccc21 [(126), 1-(3-Diethylaminopropyl)-3-(3-piperidinopropylamino)-5-hydroxyindazole]
inhibition in vivo at 100 mg/kg [5]: 28% | occurrence frequency of ulcer (gastric ulcer; [8]): the occurrence frequency was not changed | ulcer index (gastric ulcer; [8]): 5.8 mm | occurrence of gastric ulcer (gastric ulcer; rat, in vivo): gastric ulcer did not occur | LD50 (in vivo): 310 mg/kg

c1ccc2c(NCCCN3CCOCC3)n[nH]c2c1 [(152), 3-(3-Morpholinopropylamino)indazole]
inhibition in vivo at 100 mg/kg [5]: 51% | Bradykinin inducing edema Inhibition ([6]; 100 mg/kg oral): 37% | Histamine inducing edema Inhibition (Histamine inducing edema; 100 mg/kg oral): 20.7% | Serotonin inducing edema Inhibition (Serotonin inducing edema; 100 mg/kg oral): 42.9% | Inhibition (acetic acid-writing, analgesic activity) (acetic acid-writing; 100 mg/kg oral): 57%

Nc1n[nH]c2ccc(O)cc12 [(162), 3-Amino-5-hydroxyindazole]
inhibition in vivo at 100 mg/kg [5]: 45% | catch of superoxide / one electron acceptance [4, 7]: can catch the superoxide; also recorded: accepts one electron from the superoxide | LD50 (in vivo): 243 mg/kg

COc1ccc2c(c1)c(CC(=O)O)c(C)n2C(=O)c1ccc(Cl)cc1 [Compound C-4, Indomethacin]
Bradykinin inducing edema Inhibition ([6]; Dose: 10 mg/kg, oral): 0.4% | Histamine inducing edema Inhibition (Histamine inducing edema; Dose: 10 mg/kg, oral): 0% | Serotonin inducing edema Inhibition (Serotonin inducing edema; Dose: 10 mg/kg, oral): 21.4% | Inhibition (acetic acid-writing, analgesic activity) (acetic acid-writing; Dose: 20 mg/kg, oral): 50%

CCCCC1C(=O)N(c2ccccc2)N(c2ccccc2)C1=O [Compound C-5, 3,5-dioxo-1,2-diphenyl-4-n-butylpyrazolidine]
Bradykinin inducing edema Inhibition ([6]; 100 mg/kg oral): 2.9% | Histamine inducing edema Inhibition (Histamine inducing edema; 100 mg/kg oral): 0% | Serotonin inducing edema Inhibition (Serotonin inducing edema; 100 mg/kg oral): 2.8% | Inhibition (acetic acid-writing, analgesic activity) (acetic acid-writing; 100 mg/kg oral): 9%

COc1ccc2c(c1)c(CC(=O)O)c(C)n2C(=O)c1ccc(Cl)cc1 [indomethacin, 1-(p-chlorobenzoyl)-5-methoxy-2-methyl-indole-3-acetic acid, reference compound]
occurrence frequency (Ulcer generation animal number/Total animal number) (gastric ulcer; rat, in vivo, 10 mg/kg): 6/6 | ulcer index (gastric ulcer; rat, in vivo, 10 mg/kg): 10.2 mm
